According to PubChem BioAssay AID1845200 (Molecular Pharmacology Branch, DTP, NCI, 2023):

Test system: ASPS-1 complex tumor spheroids, viability
Experiment: Anticancer human tumor ASPS-1 cell line growth inhibition;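 note: spheroids exposed to agents for 7 days after 3 days of growth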;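 for viability, T/C: 100% = DMSO vehicle treated spheroids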
Conditions: for IC50: curve of first compound; for viability, T/C: stronger effect = lower value
Procedure, shortened: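 Single agents and combinations were tested on spheroids built from tumor cells plus HUVEC and hMSC, at half-log dilutions starting at or near clinical Cmax, else 10 microM; final DMSO 0.25% (v/v).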

[1] = second compound 30 pM, first compound 0.0316 µM
[2] = second compound 30 pM, first compound 0.1 µM
[3] = second compound 30 pM, first compound 0.316 µM
[4] = second compound 30 pM, first compound 1 µM
[5] = second compound 30 pM, first compound 3.16 µM
[6] = second compound 30 pM, first compound 10 µM
[7] = second compound 94.9 pM, first compound 0.0316 µM
[8] = second compound 94.9 pM, first compound 0.1 µM
[9] = second compound 94.9 pM, first compound 0.316 µM
[10] = second compound 94.9 pM, first compound 1 µM
[11] = second compound 94.9 pM, first compound 3.16 µM
[12] = second compound 94.9 pM, first compound 10 µM
[13] = second compound 0.0003 µM, first compound 0.0316 µM
[14] = second compound 0.0003 µM, first compound 0.1 µM
[15] = second compound 0.0003 µM, first compound 0.316 µM
[16] = second compound 0.0003 µM, first compound 1 µM
[17] = second compound 0.0003 µM, first compound 3.16 µM
[18] = second compound 0.0003 µM, first compound 10 µM
[19] = second compound 0.000949 µM, first compound 0.0316 µM
[20] = second compound 0.000949 µM, first compound 0.1 µM
[21] = second compound 0.000949 µM, first compound 0.316 µM
[22] = second compound 0.000949 µM, first compound 1 µM
[23] = second compound 0.000949 µM, first compound 3.16 µM
[24] = second compound 0.000949 µM, first compound 10 µM
[25] = second compound 0.003 µM, first compound 0.0316 µM
[26] = second compound 0.003 µM, first compound 0.1 µM
[27] = second compound 0.003 µM, first compound 0.316 µM
[28] = second compound 0.003 µM, first compound 1 µM
[29] = second compound 0.003 µM, first compound 3.16 µM
[30] = second compound 0.003 µM, first compound 10 µM

Row | SMILES | IC50 (second compound 30 pM) | IC50 (second compound 94.9 pM) | IC50 (second compound 0.0003 µM) | IC50 (second compound 0.000949 µM) | IC50 (second compound 0.003 µM) | viability, T/C [1] | viability, T/C [2] | viability, T/C [3] | viability, T/C [4] | viability, T/C [5] | viability, T/C [6] | viability, T/C [7] | viability, T/C [8] | viability, T/C [9] | viability, T/C [10] | viability, T/C [11] | viability, T/C [12] | viability, T/C [13] | viability, T/C [14] | viability, T/C [15] | also measured
1 | CC(C)n1c(=O)n(C)c2cnc3cc(F)c(-c4ccc(OCCCN5CCCCC5)nc4)cc3c21 + COc1cc2c(cc1O)CCNC21CSC2c3c(OC(C)=O)c(C)c4c(c3C(COC1=O)N1C(O)C3Cc5cc(C)c(OC)c(O)c5C(C21)N3C)OCO4 | > 10 µM | > 10 µM | 0.868 µM | < 0.0316 µM | < 0.0316 µM | 105% | 99.5% | 98.2% | 92.5% | 83.7% | 50% | 96.1% | 84% | 78% | 72.7% | 64.4% | 48.7% | 68.7% | 62.7% | 54.7% | viability, T/C [16]: 50.4%; viability, T/C [17]: 41.6%; viability, T/C [18]: 31.1%; viability, T/C [19]: 48.7%; viability, T/C [20]: 45.6%; viability, T/C [21]: 35.3%; viability, T/C [22]: 25.1%; viability, T/C [23]: 19.9%; viability, T/C [24]: 18.1%; viability, T/C [25]: 15%; viability, T/C [26]: 5.65%; viability, T/C [27]: 1.44%; viability, T/C [28]: 0.39%; viability, T/C [29]: 0.32%; viability, T/C [30]: 0.46%
2 | COc1ccc([C@@H](O)c2cc(-c3ncnc4cc(N5CCOCC5)ccc34)c(F)cc2Cl)nn1 + COc1cc2c(cc1O)CCNC21CSC2c3c(OC(C)=O)c(C)c4c(c3C(COC1=O)N1C(O)C3Cc5cc(C)c(OC)c(O)c5C(C21)N3C)OCO4 | 6.58 µM | 4.8 µM | 1.52 µM | 0.379 µM | < 0.0316 µM | 103% | 106% | 103% | 93.2% | 77% | 34.7% | 108% | 106% | 101% | 96.7% | 62.6% | 27.5% | 103% | 108% | 97.7% | viability, T/C [16]: 68.3%; viability, T/C [17]: 18.7%; viability, T/C [18]: 5.37%; viability, T/C [19]: 79.3%; viability, T/C [20]: 81%; viability, T/C [21]: 55%; viability, T/C [22]: 17.5%; viability, T/C [23]: 1.86%; viability, T/C [24]: 0.35%; viability, T/C [25]: 22.5%; viability, T/C [26]: 19.1%; viability, T/C [27]: 9.89%; viability, T/C [28]: 1.71%; viability, T/C [29]: 1.27%; viability, T/C [30]: 1.18%
